Values joined by “and” are separate entries in the source; they are usually repeats but may differ in a detail not shown here. Identical values can stand only once. Starred links: 1 amine or outer side, 2 acyl side, 3 side chain; linkers in the order of their positions; H or OH if unused. Positions of bridges follow the written chain, without caps; N, C: chain ends. Non-standard residues stand in square brackets, D forms with d. Residues, ends and D or L forms follow the SMILES beside them. Chains are numbered I, II in the order given. *: point of attachment. Actinocin(9to1) = Cc1c2oc3c(C)ccc(C(=O)[*:1])c3nc-2c(C(=O)[*:2])c(N)c1=O; NMeV = CN[C@H](C(=O)O)C(C)C; Cbz = O=C(OCc1ccccc1)*; Sar = CNCC(=O)O; CH2F = FC*
Tests used:
caspase 3-like proteases = assay: caspase activation, colorigenic cleavage of Ac-DEVD-pNA by lysates of transfected 293T cells; format: biochemical
Description: Lysates were collected from 293T cells, transiently transfected via the CaP04 method (Ray, R., et al., 1999), at the indicated times. Aliquots of these lysates were run under Laemmli sodium dodecyl sulfate-polyacrylamide gel electrophoresis (SDS-PAGE) conditions and immunoblotted with mouse monoclonal anti-PARP. Results were visualized with an enhanced chemiluminescence system (Amersham Pharmacia Biotech, Amersham, U. K.). Transfected 293T cells were also assayed for caspase cleavage via colorigenic cleavage of the peptide Ac-DEVD-pNA (Biomol, Plymouth Meeting, Pa.), according to the conditions outlined by Quignon et al. (Scaffidi, C., et al., 1998), using 100 mM peptide. Where appropriate, samples were preincubated with 500 nM Ac-DEVD-fmk for 30 minutes at room temperature. Data were acquired on a Multiskan MCC/340 (Titertek) plate reader at 405 nm.

293T cells [1] = assay: DNA fragmentation (TUNEL) in transfected 293T cells; format: cell-based; parameters: dose or concentration left out as unconfirmed
Description: DNA fragmentation was detected using the in situ cell death detection kit with fluorescein (Boehringer Mannheim) as per the manufacturer's recommendations in the presence or absence of […] Ac-zVAD-fmk or Ac-FA-fmk. Images were captured as described earlier. No fewer than 200 nuclei were scored manually for each sample. Annexin V staining was performed exactly as described by the manufacturer (Boehringer Mannheim), and samples were analyzed via flow cytometry.

293T cells [2] = assay: b-galactosidase cell death assay in transiently transfected 293T cells; format: cell-based
Description: (§1) Various doses of the peptide caspase inhibitor Ac-zVAD-fmk (Enzyme System Products, Dublin, Calif.) were applied to 1×10^5 293T cells cotransfected, using LipofectAmine reagent (Gibco-BRL), with 0.01 mg of the reporter plasmid pcDNA3bgal plus the indicated expression plasmids to a final amount of 0.75 mg of DNA (see FIG. 2), as adjusted with empty vector. Cells were fixed, stained, and evaluated 27 hours posttransfection as described previously (Miura, M. et al., 1993). Similar strategies were used to evaluate the expression of pcDNA1-p35 as a caspase inhibitor (1.95 mg of DNA total) and to determine the killing efficiency of BNIP3 expressed in MEF cells (1.2 mg of DNA with 0.3 mg of b-galactosidase).

[3] = tested on: primary hippocampal neurons; assay: excitotoxic cell death of primary hippocampal neurons, trypan blue exclusion; format: cell-based, rat
Description: Primary hippocampal neurons were prepared from 18-day-old embryonic Sprague-Dawley rats as described previously by Haughey, N. J. et al. (2001). Briefly, hippocampal tissue was dissociated by gentle tituration in a calcium-free Hank's balanced salt solution and was centrifuged at 1000×g. Cells were resuspended in Dulbecco's modified Eagle's medium (DMEM)/F12 nutrient mixture containing 10% heat-inactivated fetal bovine serum and 1% antibiotic solution (104 IU of penicillin G/ml, 10 mg streptomycin/ml and 25 μg amphotericin B/ml) in 0.9% NaCl (Sigma, St Louis, Mo., USA). Hippocampal neurons were plated at a density of 2×10^5 cells/ml on 12-mm diameter poly d-lysine-coated glass coverslips. Three hours after plating, the media was replaced with serum-free Neurobasal media containing 1% B-27 supplement (Gibco, Rockville, Md., USA).
To determine the extent to which NMDA-type glutamate receptors were involved in BNIP3 expression and excitotoxic cell death, the inventors used the agonist NMDA (100 μM) in the absence or presence of the NMDA receptor antagonist MK-801 (10 μM). To determine the extent to which caspase activation contributes to BNIP3-mediated cell death, hippocampal cells were incubated in the absence or presence of the broad spectrum cell permeable caspase inhibitors z-VAD-FMK (50 μM) and BOC-D-FMK (50 μM); these inhibitors were applied 30 minutes prior to application of glutamate or NMDA. […]
(§2) In vitro cell death was estimated using trypan blue exclusion. Cells were incubated in 0.4% trypan blue solution for 30 minutes and then counted on a bright-field microscope. Nonviable cells were distinguished by their dark blue staining. To examine nuclear morphology, nuclear DNA was stained with Hoescht 33342. DNA fragmentation was detected by TUNEL using an in situ cell death detection kit with fluorescein. Statistical analyses were by ANOVA with Tukey's post-test.

ventricular myocytes = assay: cell viability of ventricular myocytes, calcein acetoxymethyl ester / ethidium homodimer-1; format: cell-based; conditions: for BNIP3-induced cell death of ventricular myocytes: z-VAD-fmk 25 to 100 μmol/L, dose dependent
Description: Ventricular myocytes were isolated from 1- to 2-day-old Sprague-Dawley rats (University of Manitoba, Winnipeg, Canada) and submitted to primary culture as reported (Kirshenbaum and Schneider, 1995). Myocytes were subjected to hypoxia for 24 hours in an air-tight chamber continually gassed with 95% N2-5% CO2, as previously reported (Moissac et al., 2000; Long et al., 1997; Tanaka et al., 1994). Adult rat hearts (n=3) were excised from adult rats (250 to 300 g) and subjected to global hypoxia for 1 hour on a modified Langendorff perfusion system with buffer continually gassed with 95% N2-5% CO2, as previously reported (Kirshenbaum, 1993). Heart failure was induced in rats by surgical ligation of the left anterior descending coronary artery, as previously reported (Dixon et al., 1992). Non-failing sham control hearts and those with heart failure were excised from animals 8 weeks after myocardial infarction. Hearts (n=3) were dissected to remove the infarcted scar tissue, and the left ventricular free wall was homogenized and analyzed by Western blot for BNIP3 expression. Animals were handled according to guidelines established by the University of Manitoba and Canadian Council on Animal Care.
The cDNAs for BNIP3 full-length (BNIP3) and carboxyl terminal transmembrane domain deletion mutant (BNIP3ΔTM) have been described previously (Vande et al., 2000). Recombinant adenoviruses encoding the full-length BNIP3 or transmembrane deletion mutant are designated AdBNIP3 or AdBNIP3ΔTM, respectively, and generated as reported previously (Kirshenbaum et al., 1993).
Cell viability was determined using the vital dyes 2 μmol/L calcein acetoxymethyl ester (green) to determine the number of living cells and 2 μmol/L ethidium homodimer-1 (red) (Molecular Probes) to identify the number of dead cells (Kirshenbaum and Schneider, 1995). The number of green cells versus red cells was used to determine changes in cell viability (Moissac et al., 2000). Cells were analyzed from at least n=3 independent myocyte isolations counting ≧200 cells for each condition tested. Data are expressed as mean±SE percent reduction from control.

MEFs = assay: b-galactosidase cell death assay in wild-type, Apaf-1, caspase 9 or caspase 3 deficient MEFs; format: cell-based, mouse
Description: as §1
Results are expressed as the mean […] SE from three independent experiments. […] N, N-Dimethyl formamide (DMF) was used to dilute the adriamycin.

PT pore = assay: mitochondrial Dcm (DiOC6), ROS production (HE) and PI staining by flow cytometry in BNIP3-transfected 293T cells; format: cell-based; conditions: 293T cells, 8 hours after transfection
Description: Changes in mitochondrial function were determined by incubating 10 6 293T cells, transiently transfected via the CaP04 method, with either 1 mM JC-1, 40 nM DiOC6, or 2 mM dihydroethidium (HE) (all from Molecular Probes, Inc.) for 30 minutes at 37° C. in Hanks' balanced salt solution (Gibco-BRL). Cells were scored using a FACScalibur flow cytometer (Becton-Dickinson, San Jose, Calif.), and data were analyzed on Celiquest software, version 3.1 (Becton-Dickinson). Controls were performed in the presence or absence of […] mClCCP (Sigma) or an excess of 30% H2 02. For inhibition experiments, cyclosporin A (Sigma) or bongkrekic acid (a gift from J. A. Duine, Delft University, Delft, The Netherlands) was added 2 hours prior to transfection. All cells were harvested 8 hours after transfection and stained with 40 nM DiOC6, 2 mM HE, or 1 mg of propidium iodide (PI) (Sigma) per ml. In all cases, samples were gated to exclude cellular debris.

MCF-7 cells = assay: cytochrome c release by indirect immunofluorescence, MCF-7; format: cell-based
Description: (§3) Mitochondria were isolated from CaP04-transfected 293T cells using 70 strokes (tight pestle) in a 1-ml Dounce homogenizer (Wheaton) in […] of CFS buffer as previously described (Thornberry, N. A., et al., 1998). Mitochondria were resuspended in H buffer (Thornberry, N. A., et al., 1998). Aliquots of […] of protein were analyzed on Laemmli SDS-15% PAGE gels and immunoblotted with anticytochrome c monoclonal antibody. Equal loading was ensured by probing the same blot with monoclonal antiactin. Results were visualized with enhanced chemiluminescence. Cytochrome c release was also determined via indirect immunofluorescence of transfected MCF-7 and 293T cells. Briefly, cells grown on coverslips were costained with Cy3-conjugated mouse anti-cytochrome c monoclonal antibody and an appropriate tag (HA for BNIP3 and FLAG for tBID), which was visualized with FITC-conjugated goat anti-rabbit IgG. Cells were also stained with Hoechst dye to determine apoptotic nuclear morphology. No fewer than 200 cells were scored for each sample. Fluorescence was visualized and captured using a Zeiss axiophot microscope equipped with a cooled charge-coupled device camera.

293T cells [4] = assay: cytochrome c release by indirect immunofluorescence, 293T; format: cell-based
Description: as §3

[5] = tested on: primary hippocampal neurons; assay: primary hippocampal neurons transfected with BNIP3 plasmids, DNA condensation and survival; format: cell-based, rat
Description: Transfection of cells was performed on day four in culture with LipofectAMINE 2000 […] according to manufacturer's protocol. Cells were transfected with a pcDNA3-BNIP3 plasmid encoding the full length of BNIP3 and a pcDNA3-BNIP3-163 plasmid that encodes a truncated form (the first 163 amino acids) of BNIP3 that lacks the functional transmembrane domain. Cells were used after 9 days in culture for excitotoxicity experiments. Neuronal cell death was assessed using trypan blue exclusion, morphological changes, and Hoescht 33342 staining. Morphological characteristics were examined on a Nikon Eclipse TE200 microscope and fluorescence was examined on a Zeiss Axioskop 2.
as §2

[6] = inhibitor, 24 hours posttransfection

Compound: CC(=O)N[C@@H](CC(=O)O)C(=O)N[C@@H](CCC(=O)O)C(=O)N[C@H](C(=O)N[C@@H](CC(=O)O)C(=O)CF)C(C)C [Ac-DEVD-fmk]
- proteolytic activity of lysates of BNIP3 or BNIP3DTM transfected cells with inhibitor (caspase 3-like proteases; 500 nM Ac-DEVD-fmk): not inhibited
- Ac-DEVD-pNA substrate cleavage in tBID-transfected cells with inhibitor (caspase 3-like proteases; lysates preincubated with 500 nM Ac-DEVD-fmk): blocked

Compound: CC(=O)NC(Cc1ccccc1)C(=O)NC(C)C(=O)CF (stereo not shown) [Ac-FA-fmk]
- DNA fragmentation (TUNEL) in parallel populations (293T cells [1]; Ac-FA-fmk): No effect

Compound: COC(=O)C[C@H](NC(=O)[C@H](C)NC(=O)[C@@H](NC(=O)OCc1ccccc1)C(C)C)C(=O)CF [Ac-zVAD-fmk] (Cbz-Val-Ala-Asp(OMe)-CH2F)
- BNIP3-induced cell death in presence of caspase inhibitor (293T cells [2]; 293T cells transfected with BNIP3, evaluated 27 hours posttransfection, p35 plasmid up to 1.5 mg): unaffected
- suppression of cell death of tBID or caspase 9/Apaf-1 transfectants (293T cells [2]; 293T cells, 27 hours posttransfection, same concentration of inhibitor): greater than 50%
- DNA fragmentation (TUNEL) in BNIP3 transfectants (293T cells [1]; [6]): partially inhibited
- DNA fragmentation (TUNEL) in tBID-expressing cells (293T cells [1]; [6]): nearly completely inhibited
- cell death caused by glutamate or NMDA ([3]; z-VAD-FMK 50 μM alone, trypan blue 6 hours after glutamate or NMDA): did not prevent
- BNIP3-induced cell death of ventricular myocytes (ventricular myocytes; listed as z-VAD-fmk): prevented
- BNIP3-induced cell death of ventricular myocytes (ventricular myocytes; listed as z-VADfmk): suppressed

Compound: CN[C@H](CC(=O)O)C(=O)O [NMDA]
- neuronal cell death (trypan blue exclusion) ([3]; 6 hours after application, p<0.01): significantly increased

Compound: Cc1c2oc3c(C)ccc(C(=O)N[C@@H]4C(=O)N[C@H](C(C)C)C(=O)N5CCC[C@H]5C(=O)N(C)CC(=O)N(C)[C@@H](C(C)C)C(=O)O[C@@H]4C)c3nc-2c(C(=O)N[C@@H]2C(=O)N[C@H](C(C)C)C(=O)N3CCC[C@H]3C(=O)N(C)CC(=O)N(C)[C@@H](C(C)C)C(=O)O[C@@H]2C)c(N)c1=O [actinomycin D] (I: T[dV]P[Sar][NMeV] / II: T[dV]P[Sar][NMeV]; ester I:1-I:C, II:1-II:C; linker I:N-II:N via Actinocin(9to1))
- number of trypan blue positive cells caused by glutamate toxicity ([3]; actinomycin D 1 mg/ml added, p<0.01, to untreated control levels): significantly decreased
- cell death rates, drug alone ([3]; actinomycin D alone): did not affect

Compound: COc1cccc2c1C(=O)c1c(O)c3c(c(O)c1C2=O)C[C@@](O)(C(=O)CO)C[C@@H]3O[C@H]1C[C@H](N)[C@H](O)[C@H](C)O1 [adriamycin]
- adriamycin-induced cell death in mutant MEFs (MEFs; Apaf-1, caspase 9 or caspase 3 deficient MEFs, 3 mg of adriamycin per ml for 24 hours): profound resistance

Compound: BNIP3: full-length BNIP3, expressed from plasmid or adenovirus; mutation None
- increase in Ac-DEVD-pNA substrate cleavage after transfection (caspase 3-like proteases; 293T lysates harvested 1 to 36 hours posttransfection, versus untransfected controls): only marginal increases
- cell death induced by transient transfection (MEFs; wild-type and all mutant MEF lines): 50%
- DiOC6-low and HE-high cells (PT pore): 55%
- cytochrome c release (in words) (MCF-7 cells): no significant cytochrome c release
- cytochrome c release (in words) (293T cells [4]): only very low levels
- neurons surviving glutamate toxicity ([5]; glutamate 100 μM at day 9 in culture, 5 days after transfection): 32%
- BNIP3-positive neurons showing DNA condensation / DNA damage ([5]; transiently transfected hippocampal neurons): 81% and 85%
- increase in myocyte death (ventricular myocytes; adenovirus encoding full-length BNIP3 versus control virus, P<0.05): 8.3 fold
